Data on 6 compounds can be found in article PMC6694038, “Pharmacogenomic–pharmacokinetic study of selective estrogen-receptor modulators with intra-patient dose escalation in breast cancer” (Breast Cancer (Tokyo, Japan), 2019).

The conditions of data set [1]: weighting of plasma concentration; cited from earlier work.
Data set [2] can be described thus: Plasma concentrations of TAM, TOR and their metabolites by LC–MS/MS (screening study).
Data set [3] can be described thus: Hot flush grade (CTCAE v3.0) in the screening study. Format: in vivo, breast cancer patients. The text has this:
We obtained data on compliance and the grade of hot flush as defined by the Common Terminology Criteria for Adverse Events v3.0.

Where [4] appears, read: patients on TAM 20 mg a day, N=182.
Where [5] appears, read: 14 patients of the dose-escalation study.

Turning to `CNCCOc1ccc(/C(=C(/CCCl)c2ccccc2)c2ccc(O)cc2)cc1` [4OH-NDM-TOR], the “In vitro activity factor in the total activity of TOR (TOR = 1.0)” value (“In vitro activity factor … (TOR = 1.0)” below) in data set [1] is given as 91.9. Besides, in data set [2] (patients on TOR 40 mg, N=61), the “Plasma concentration, max” value is listed as 68.8 ng/mL; the “Plasma concentration, mean” value was determined as 15.4 ng/mL; the “Plasma concentration, median” value is reported as 13.4 ng/mL; the “Plasma concentration, min” value is 4.5 ng/mL. Besides, in data set [2] (patients on TOR 120 mg, N=27), the “Plasma concentration, max” value is given as 52.9 ng/mL; the “Plasma concentration, mean” value stood at 32.6 ng/mL; the “Plasma concentration, median” value is recorded as 34.3 ng/mL; the “Plasma concentration, min” value is reported as 11.5 ng/mL.
Consider `CC/C(=C(\c1ccc(O)cc1)c1ccc(OCCN(C)C)cc1)c1ccccc1` [4OH-TAM], for which the “In vitro activity factor in the total activity of TAM (TAM = 1.0)” value (“In vitro activity factor … (TAM = 1.0)” below) in data set [1] is 116. Also, in data set [2] (setting [4]), the “Plasma concentration, max” value turned out to be 9.5 ng/mL; the “Plasma concentration, mean” value is 3.6 ng/mL; the “Plasma concentration, median” value stood at 3.3 ng/mL; the “Plasma concentration, min” value is 0.2 ng/mL.
For `CN(C)CCOc1ccc(/C(=C(/CCCl)c2ccccc2)c2ccc(O)cc2)cc1` [4OH-TOR], in data set [1], the “In vitro activity factor … (TOR = 1.0)” value is 98.0. Further, in data set [2] (patients on TOR 40 mg, N=61), the “Plasma concentration, max” value was determined as 16.4 ng/mL; the “Plasma concentration, mean” value was 8.1 ng/mL; the “Plasma concentration, median” value was found to be 6.9 ng/mL; the “Plasma concentration, min” value was determined as 2.4 ng/mL. In data set [2] (patients on TOR 120 mg, N=27), the “Plasma concentration, max” value turned out to be 31.2 ng/mL; the “Plasma concentration, mean” value is listed as 16.0 ng/mL; the “Plasma concentration, median” value is reported as 14.6 ng/mL; the “Plasma concentration, min” value is recorded as 5.5 ng/mL.
Take `CC/C(=C(\c1ccccc1)c1ccc(OCCNC)cc1)c1ccccc1` [NDM-TAM]: in data set [1], the “In vitro activity factor … (TAM = 1.0)” value is listed as 0.655. In data set [2] (setting [4]), the “Plasma concentration, max” value is 1090.0 ng/mL; the “Plasma concentration, mean” value is reported as 283.2 ng/mL; the “Plasma concentration, median” value is on record as 271.0 ng/mL; the “Plasma concentration, min” value was determined as 59.2 ng/mL.
Take `CNCCOc1ccc(/C(=C(/CCCl)c2ccccc2)c2ccccc2)cc1` [NDM-TOR]: in data set [1], the “In vitro activity factor … (TOR = 1.0)” value is recorded as 0.764. In data set [2] (patients on TOR 40 mg, N=61), the “Plasma concentration, max” value is given as 2820.0 ng/mL; the “Plasma concentration, mean” value was 1373.7 ng/mL; the “Plasma concentration, median” value is listed as 1350.0 ng/mL; the “Plasma concentration, min” value is 601.0 ng/mL. In addition, in data set [2] (patients on TOR 120 mg, N=27), the “Plasma concentration, max” value is reported as 5430.0 ng/mL; the “Plasma concentration, mean” value is 3594.4 ng/mL; the “Plasma concentration, median” value is recorded as 3500.0 ng/mL; the “Plasma concentration, min” value is on record as 1380.0 ng/mL.
In the case of `CC/C(=C(\c1ccccc1)c1ccc(OCCN(C)C)cc1)c1ccccc1` [TAM, tamoxifen], the “In vitro activity factor … (TAM = 1.0)” value in data set [1] is listed as 1.0. Also, in data set [2] (setting [4]), the “Plasma concentration, max” value was found to be 552.0 ng/mL; the “Plasma concentration, mean” value is listed as 174.7 ng/mL; the “Plasma concentration, median” value is recorded as 163.0 ng/mL; the “Plasma concentration, min” value was 38.5 ng/mL. In addition, in data set [3] (setting [5]), the “Hot flush grade 0 on TAM 20 mg, % of patients” value is 57.1%; the “Hot flush grade 0 on TAM 20 mg, patients” value stood at 8; the “Hot flush grade 1 on TAM 20 mg, % of patients” value was 28.6%; the “Hot flush grade 1 on TAM 20 mg, patients” value was determined as 4. In data set [3] (setting [5]), the “Hot flush grade 2 on TAM 20 mg, % of patients” value was 14.3% and the “Hot flush grade 2 on TAM 20 mg, patients” value turned out to be 2. In data set [3] (TAM 20 mg, screening study), the “Hot flush grade 0, % of patients” value stood at 56.8%; the “Hot flush grade 1, % of patients” value is listed as 31.4%; the “Hot flush grade 1, patients” value is 58; the “Hot flush grade 2, % of patients” value was found to be 11.4%. Further, in data set [3] (TAM 20 mg, screening study), the “Hot flush grade 2, patients” value was 21; the “Hot flush grade 3, % of patients” value came out at 0.5%; the “Hot flush grade 3, patients” value was found to be 1.
